Data set [1] addresses Programmed cell death protein 1/Programmed cell death 1 ligand 1 (Homo sapiens, UniProt Q15116+Q9NZQ7). Briefly: Inhibition of human PD-1/PD-L1 interaction assessed as disruption of PD-1/PD-L1 complex incubated for 2 hrs by Tag-1 Eu3+ and anti-Tag2-XL665 based HTRF assay. The data set is classed as protein-complex assay. In general terms: Time-resolved FRET reads energy transfer from a long-lived donor to a nearby acceptor.

Data set [2] is described as follows: Anti-tumor activity against mouse lewis lung carcinoma cells allografted in C57BL6 mouse assessed as reduction in tumor growth at 5 mg/kg, ig for 21 days relative to control. It counts as functional. The following applies: po, 504 h, time 21 day, read-out: TGI.
The test system of data set [3] is Mus musculus. Briefly: Upregulation of IFNgamma protein expression in C57BL6 mouse serum allografted with mouse lewis lung carcinoma cells at 5 mg/kg, ig for 21 days by ELISA. The data set is classed as functional, organism-based. Conditions: time 21.0 day. A general note: In an ELISA, binding on a coated surface is turned into a signal by an enzyme label.
Data set [4] relates to Mus musculus. Briefly: Toxicity in C57BL6 mouse allografted with mouse lewis lung carcinoma cells assessed as reduction body weight at 5 mg/kg, ig for 21 days. It counts as organism-based. Conditions: in vivo, po, 504 h, time 21 day.

Molecules are shown by their SMILES. Active and inactive are the calls of the source. The rule behind the calls is not given here.

Chain of Programmed cell death protein 1/Programmed cell death 1 ligand 1 (Q15116 whole entry): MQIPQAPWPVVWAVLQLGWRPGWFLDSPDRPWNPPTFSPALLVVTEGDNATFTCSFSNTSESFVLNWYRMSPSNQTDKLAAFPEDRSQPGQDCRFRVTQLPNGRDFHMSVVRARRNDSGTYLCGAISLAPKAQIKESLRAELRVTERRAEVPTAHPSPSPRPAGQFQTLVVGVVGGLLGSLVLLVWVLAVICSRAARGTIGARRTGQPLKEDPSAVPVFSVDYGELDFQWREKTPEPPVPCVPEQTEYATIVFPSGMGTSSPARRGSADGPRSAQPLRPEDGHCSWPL
Chain of Programmed cell death protein 1/Programmed cell death 1 ligand 1 (Q9NZQ7 whole entry): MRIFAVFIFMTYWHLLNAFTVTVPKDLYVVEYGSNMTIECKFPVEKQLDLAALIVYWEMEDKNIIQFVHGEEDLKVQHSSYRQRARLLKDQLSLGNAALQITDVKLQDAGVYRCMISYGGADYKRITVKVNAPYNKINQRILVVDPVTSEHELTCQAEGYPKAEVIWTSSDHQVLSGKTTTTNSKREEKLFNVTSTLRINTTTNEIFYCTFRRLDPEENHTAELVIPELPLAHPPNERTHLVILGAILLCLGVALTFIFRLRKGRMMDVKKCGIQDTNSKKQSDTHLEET

For `Cc1c(COc2ccc(CN3CCC[C@H]3C(=O)N(C)CC(O)CO)cc2[N+](=O)[O-])cccc1-c1ccccc1` (stereo partly specified), the IC50 (as a rule, the concentration that gives 50% inhibition) in data set [1] stood at 9.98 nM.
Same read-out and setting: for `Cc1c(COc2ccc(CN3CCCC[C@H]3C(=O)N3CCC[C@H]3C(=O)O)cc2[N+](=O)[O-])cccc1-c1ccccc1` the value was 14.8 nM.
Regarding `Cc1c(COc2ccc(CN3CCCC[C@H]3C(=O)N[C@@H](CO)C(=O)O)cc2[N+](=O)[O-])cccc1-c1ccccc1`, in data set [1], the IC50 turned out to be 12.4 nM.
Take `Cc1c(COc2ccc(CN[C@@H](CO)C(=O)O)cc2[N+](=O)[O-])cccc1-c1ccccc1`: the IC50 in data set [1] stood at 27.7 nM.
On the same count and under the same terms, for `CC(=O)NCCNC(=O)[C@@H]1CCCN1Cc1ccc(OCc2cccc(-c3ccccc3)c2C)c([N+](=O)[O-])c1` the value was 56.4 nM.
On to `Cc1c(COc2ccc(CN[C@@H](CO)C(=O)O)c(OCc3cccc(C#N)c3)c2)cccc1-c1ccccc1`, for which the IC50 in data set [1] came to 30.2 nM. For the same compound, in data set [2], the inhibition in vivo at 5 mg/kg amounted to 17.8%. The outcome in the data set on Mus musculus [3] was Active. Moreover, the Activity entry in the data set on Mus musculus [4] was “Non-Toxic”.
Consider `Cc1c(COc2ccc(CN3CCC[C@H]3C(=O)NC(C)(CO)CO)cc2[N+](=O)[O-])cccc1-c1ccccc1`, for which, in data set [1], the IC50 was determined as 49.4 nM.
The same measure, in the same setting: the figure for `Cc1c(COc2cc(OCc3cccc(C#N)c3)c(CN3CCC[C@H]3C(=O)O)cc2[N+](=O)[O-])cccc1-c1ccccc1` is 22.7 nM.
The same measure, in the same setting: the figure for `Cc1c(COc2ccc(CNCCO)cc2[N+](=O)[O-])cccc1-c1ccccc1` is 11.8 nM; for `Cc1c(COc2cc(OCc3cccc(C#N)c3)c(CN[C@@H](CO)C(=O)O)cc2[N+](=O)[O-])cccc1-c1ccccc1` it is 13 nM.
Same read-out and setting: for `Cc1c(COc2ccc(CN[C@H](C(=O)O)[C@@H](C)O)cc2[N+](=O)[O-])cccc1-c1ccccc1` the value was 61 nM; for `Cc1c(COc2cc(OCc3cccc(C#N)c3)c(CN3CCCC[C@H]3C(=O)NCC(C)(C)O)cc2[N+](=O)[O-])cccc1-c1ccccc1`, 4.77 nM.
Regarding `Cc1c(COc2cc(OCc3cccc(C#N)c3)c(CN(C)CC(=O)O)cc2[N+](=O)[O-])cccc1-c1ccccc1`, the IC50 in data set [1] was found to be 7.44 nM.
The same measure, in the same setting: the figure for `Cc1c(COc2ccc(CN3CCC[C@H]3C(=O)NCC(C)(C)O)cc2[N+](=O)[O-])cccc1-c1ccccc1` is 71.2 nM; for `Cc1c(COc2ccc(CN3CCC[C@H]3C(=O)N[C@@H](C)CO)cc2[N+](=O)[O-])cccc1-c1ccccc1` it is 61.8 nM.
Still for that read-out and setting: the figure for `Cc1c(COc2ccc(CN3CCC[C@H]3C(=O)NCCO)cc2[N+](=O)[O-])cccc1-c1ccccc1` is 55.7 nM; for `Cc1c(COc2cc(OCc3cccc(C#N)c3)c(CN3CCCC[C@H]3C(=O)O)cc2[N+](=O)[O-])cccc1-c1ccccc1` it is 5.65 nM; for `Cc1c(COc2ccc(CN3CCCC[C@H]3C(=O)N[C@@H](C)C(=O)O)cc2[N+](=O)[O-])cccc1-c1ccccc1` it is 12.7 nM.
Still for that read-out and setting: for `Cc1c(COc2ccc(CNC(CO)CO)cc2[N+](=O)[O-])cccc1-c1ccccc1` the value was 8.91 nM; for `C[C@@H](O)[C@H](NCc1ccc(OCc2cccc(-c3ccccc3)c2Br)c([N+](=O)[O-])c1)C(=O)O`, 353 nM.
Turning to `CC(=O)NCCNCc1cc([N+](=O)[O-])c(OCc2cccc(-c3ccccc3)c2C)cc1OCc1cccc(C#N)c1`, in data set [1], the IC50 was determined as 8.11 nM.
The same measure, in the same setting: for `Cc1c(COc2ccc(CN3CCC[C@H]3C(=O)N[C@@H](CO)C(=O)O)cc2[N+](=O)[O-])cccc1-c1ccccc1` the value was 73.2 nM.
Same read-out and setting: the figure for `Cc1c(COc2ccc(CN(C)CC(=O)O)cc2[N+](=O)[O-])cccc1-c1ccccc1` is 20.9 nM; for `Cc1c(COc2cc(OCc3ccnc(C#N)c3)c(CN[C@@H](CO)C(=O)O)cc2[N+](=O)[O-])cccc1-c1ccccc1` it is 9.33 nM.
Consider `CC(=O)NCCNCc1ccc(OCc2cccc(-c3ccccc3)c2C)c([N+](=O)[O-])c1`, for which, in data set [1], the IC50 was determined as 13.1 nM.
Same read-out and setting: for `CCC(CO)(CO)NC(=O)[C@@H]1CCCN1Cc1ccc(OCc2cccc(-c3ccccc3)c2C)c([N+](=O)[O-])c1` the value was 82.3 nM.
For the compound `Cc1c(COc2ccc(CN3CCC[C@H]3C(=O)N[C@H](C(=O)O)[C@@H](C)O)cc2[N+](=O)[O-])cccc1-c1ccccc1`, in data set [1], the IC50 turned out to be 55.6 nM.
Same read-out and setting: for `Cc1c(COc2ccc(CN(CCO)CCO)cc2[N+](=O)[O-])cccc1-c1ccccc1` the value was 21.4 nM.
Same read-out and setting: for `Cc1c(COc2cc(OCc3ccnc(C#N)c3)c(CN3CCCC[C@H]3C(=O)O)cc2[N+](=O)[O-])cccc1-c1ccccc1` the value was 10.2 nM; for `Cc1c(COc2cc(OCc3cccnc3)c(CN[C@@H](CO)C(=O)O)cc2[N+](=O)[O-])cccc1-c1ccccc1`, 17.9 nM.
In the case of `Cc1c(COc2cc(OCc3ccnc(C#N)c3)c(CN[C@H](C(=O)O)[C@@H](C)O)cc2[N+](=O)[O-])cccc1-c1ccccc1`, the IC50 in data set [1] worked out at 10.2 nM.
The same measure, in the same setting: for `Cc1c(COc2cc(OCc3cccnc3)c(CN[C@H](C(=O)O)[C@@H](C)O)cc2[N+](=O)[O-])cccc1-c1ccccc1` the value was 15.5 nM.
Same read-out and setting: for `Cc1c(COc2cc(OCc3cccc(C#N)c3)c(CNCCO)cc2[N+](=O)[O-])cccc1-c1ccccc1` the value was 3.59 nM; for `Cc1c(COc2cc(OCc3cccc(C#N)c3)c(CN3CCCC[C@H]3C(=O)N3CCC[C@H]3C(=O)O)cc2[N+](=O)[O-])cccc1-c1ccccc1`, 4.31 nM; for `Cc1c(COc2ccc(CNCCC(=O)O)cc2[N+](=O)[O-])cccc1-c1ccccc1`, 39.5 nM.
On the same count and under the same terms, the figure for `Cc1c(COc2ccc(CNCc3ccoc3)cc2[N+](=O)[O-])cccc1-c1ccccc1` is 87.4 nM; for `Cc1c(COc2cc(OCc3cccc(C#N)c3)c(CN3CCCC[C@H]3C(=O)N[C@@H](CO)C(=O)O)cc2[N+](=O)[O-])cccc1-c1ccccc1` it is 8.01 nM.
In the case of `Cc1c(COc2ccc(CN3CCCC[C@H]3C(=O)NCC(C)(C)O)cc2[N+](=O)[O-])cccc1-c1ccccc1`, in data set [1], the IC50 turned out to be 12.1 nM.
The same measure, in the same setting: for `CSCC[C@H](NCc1ccc(OCc2cccc(-c3ccccc3)c2C)c([N+](=O)[O-])c1)C(=O)O` the value was 17.8 nM; for `Cc1c(COc2ccc(CN3CCCC[C@H]3C(=O)O)cc2[N+](=O)[O-])cccc1-c1ccccc1`, 8.78 nM; for `Cc1c(COc2ccc(CNC(C)(CO)CO)cc2[N+](=O)[O-])cccc1-c1ccccc1`, 92.1 nM.
Still for that read-out and setting: for `Cc1c(COc2ccc(CNCCN(C)C)cc2[N+](=O)[O-])cccc1-c1ccccc1` the value was 37.7 nM.
Still for that read-out and setting: for `Cc1c(COc2cc(OCc3cccnc3)c(CN3CCCC[C@H]3C(=O)O)cc2[N+](=O)[O-])cccc1-c1ccccc1` the value was 8.75 nM; for `Cc1c(COc2ccc(CNCCCNC(CO)CO)cc2[N+](=O)[O-])cccc1-c1ccccc1`, 28.7 nM.
Consider `Cc1c(COc2ccc(CN3CCC[C@H]3C(=O)O)cc2[N+](=O)[O-])cccc1-c1ccccc1`, for which the IC50 in data set [1] came out at 45.2 nM.
`Cc1c(COc2ccc(CNCC(C)(C)O)cc2[N+](=O)[O-])cccc1-c1ccccc1`: the IC50 in data set [1] is 46.7 nM.
The same measure, in the same setting: the figure for `Cc1c(COc2ccc(CN3CCCC[C@H]3C(=O)N[C@H](C(=O)O)[C@@H](C)O)cc2[N+](=O)[O-])cccc1-c1ccccc1` is 26.7 nM; for `Cc1c(COc2cc(OCc3cccc(C#N)c3)c(CNC(CO)CO)cc2[N+](=O)[O-])cccc1-c1ccccc1` it is 7.8 nM.

The values are drawn from ChEMBL document CHEMBL5033993, “Design, Synthesis, and Evaluation of o-(Biphenyl-3-ylmethoxy)nitrophenyl Derivatives as PD-1/PD-L1 Inhibitors with Potent Anticancer Efficacy In Vivo” (J Med Chem, 2021).
